Structures can show the parent of a compound that is named as a salt. Where two headings read alike, the source gives them in different places.
Legend:
[1] = biological target: tubulin (colchicine site) (Bos taurus, UniProt P81947+Q6B856); test: Inhibition of [3H]colchicine binding to tubulin; parameters: species or system bovine; conditions: read-out: Inhibition of colchicine binding % Inhibition ± SD
Bovine brain tubulin = Bovine brain tubulin (Bos taurus, UniProt P81947+Q6B856); test: Quantitative inhibition of tubulin assembly; assay type: biochemical
Sequence of Bovine brain tubulin (Q6B856 whole entry): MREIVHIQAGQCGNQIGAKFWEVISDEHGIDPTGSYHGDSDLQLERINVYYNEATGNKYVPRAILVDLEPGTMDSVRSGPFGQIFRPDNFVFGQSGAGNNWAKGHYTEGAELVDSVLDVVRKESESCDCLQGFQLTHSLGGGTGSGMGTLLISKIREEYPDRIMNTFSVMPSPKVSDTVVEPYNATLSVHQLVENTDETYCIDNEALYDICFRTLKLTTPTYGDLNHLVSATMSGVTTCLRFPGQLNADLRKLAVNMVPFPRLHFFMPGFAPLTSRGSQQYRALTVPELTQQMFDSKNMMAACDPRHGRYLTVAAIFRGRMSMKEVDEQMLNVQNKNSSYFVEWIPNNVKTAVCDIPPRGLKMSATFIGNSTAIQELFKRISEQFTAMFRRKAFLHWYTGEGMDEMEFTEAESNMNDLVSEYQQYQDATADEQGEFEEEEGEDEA
Sequence of Bovine brain tubulin (P81947 whole entry): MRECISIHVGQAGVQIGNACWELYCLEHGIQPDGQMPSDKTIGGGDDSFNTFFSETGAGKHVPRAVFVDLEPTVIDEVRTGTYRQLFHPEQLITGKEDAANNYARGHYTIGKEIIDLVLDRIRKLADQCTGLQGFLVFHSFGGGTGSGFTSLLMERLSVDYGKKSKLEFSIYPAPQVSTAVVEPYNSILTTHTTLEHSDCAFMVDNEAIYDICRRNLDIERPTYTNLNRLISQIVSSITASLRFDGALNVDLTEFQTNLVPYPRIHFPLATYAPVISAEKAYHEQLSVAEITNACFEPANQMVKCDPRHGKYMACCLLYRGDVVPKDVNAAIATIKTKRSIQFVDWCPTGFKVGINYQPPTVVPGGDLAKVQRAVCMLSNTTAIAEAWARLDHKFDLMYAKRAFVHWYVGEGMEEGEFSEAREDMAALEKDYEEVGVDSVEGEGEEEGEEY

MDA-MB-435 cells [2] = test: Sulforhodamine B; assay type: cell-based
A-10 cells = test: Effects on cellular microtubules; assay type: cell-based; conditions: for Effect on interphase microtubules: 18 h, cell-based phenotypic screen, Fig. 3
WT βIII = test: SRB antiproliferative assay, βIII-tubulin expressing line; assay type: cell-based; conditions: for Rr (relative resistance), effect of βIII-tubulin on drug sensitivity: IC50 of the WT βIII cell line divided by IC50 of the parental HeLa cells
MDA-MB-435 cells [3] = test: Cell cycle analysis by flow cytometry; assay type: cell-based; conditions: MDA-MB-435, 24 h, 850 nM 1, 45 nM (±)-3•HCl
[4] = tested on: purified bovine brain tubulin; test: In vitro tubulin polymerization; assay type: biochemical; conditions: initial study, Fig. 5; 10% glycerol, 3 mg/mL purified tubulin, 10 mM GTP
60 cancer cell lines = test: NCI 60 tumor cell line panel, summary over the panel
HCT-15 = test: NCI 60 cell line panel tumor cell growth inhibition; conditions: Homo sapiens
HeLa = test: SRB antiproliferative assay, parental line of βIII-tubulin isogenic pair; assay type: cell-based; conditions: Homo sapiens, read-out: IC50 (SD) HeLa
SK-OV-3 MDR-1-6/6 = test: SRB antiproliferative assay, Pgp overexpressing; assay type: cell-based; conditions: Homo sapiens, SK-OV-3, read-out: IC50 (SD) SK-OV-3 MDR-1-6/6
HS 578T = test: NCI 60 cell line panel tumor cell growth inhibition; conditions: Homo sapiens
NCI/ADR-RES = test: as above; conditions: Homo sapiens
SF-295 = test: as above; conditions: Homo sapiens
RXF 393 = test: as above; conditions: Homo sapiens
MCF7 = test: as above; conditions: Homo sapiens
K-562 = test: as above; conditions: Homo sapiens, K562
HL-60(TB) = test: as above; assay type: cell-based; conditions: Homo sapiens
SNB-75 = test: as above; conditions: Homo sapiens
NCI-H522 = test: as above; conditions: Homo sapiens
UACC-62 = test: as above; conditions: Homo sapiens
OVCAR-3 = test: as above; conditions: Homo sapiens
SW-620 = test: as above; conditions: Homo sapiens
KM12 = test: as above; conditions: Homo sapiens
A498 = test: as above; conditions: Homo sapiens
SR = test: as above; conditions: Homo sapiens
SK-OV-3 = test: SRB antiproliferative assay, parental line of Pgp isogenic pair; assay type: cell-based; conditions: Homo sapiens, SK-OV-3, read-out: IC50 (SD) SK-OV-3
MDA-MB-468 = test: NCI 60 cell line panel tumor cell growth inhibition; conditions: Homo sapiens
MDA-MB-435 = test: as above; conditions: Homo sapiens
SK-MEL-5 = test: as above; conditions: Homo sapiens
SK-MEL-28 = test: as above; conditions: Homo sapiens
[5] = Homo sapiens, MDA-MB-435, read-out: IC50±SD (MDA-MB-435)

Sequence of tubulin (colchicine site) (Q6B856 whole entry): as the sequence (Q6B856 whole entry) above
Sequence of tubulin (colchicine site) (P81947 whole entry): as the sequence (P81947 whole entry) above

With `COc1ccc(/C=C\c2cc(OC)c(OC)c(OC)c2)cc1OP(=O)(O)O` [CA4P, combretastatin A-4 phosphate, reference compound] the inhibition at 1 µM [1] was 88 ± 2%, the inhibition at 5 µM [1] was 99 ± 0.2% and the IC50 (Bovine brain tubulin) was 1 ± 0.09 µM.

Compound `Cc1nc2c(c(N(C)c3ccccc3)n1)CC(C)C2` (racemic) [(±)-7•HCl, N-Phenyl-N,2,6-trimethyl-6,7-dihydro-5H-cyclopenta[d]pyrimidin-4-aminium chloride] has an IC50 (MDA-MB-435 cells [2]; [5]) of 2.7 ± 0.3 µM.

Work on “N-(4-Methoxyphenyl)-2,6-dimethyl-6,7-dihydro-5H-cyclopenta[d]pyrimidin-4-amine [(±)-4]” yielded an EC50 (A-10 cells; read-out: EC50 for microtubule depolymerization, concentration required to cause 50% loss of cellular microtubules, A-10 cells) of over 40 µM and an IC50 (MDA-MB-435 cells [2]; read-out: IC50±SD (MDA-MB-435), inhibition of proliferation, SRB assay) of over 10 µM.

With `COc1ccccc1N(C)c1nc(C)nc2c1CC(C)C2.Cl` (racemic) [(±)-6•HCl, N-(2-Methoxyphenyl)-N,2,6-trimethyl-6,7-dihydro-5H-cyclopenta[d]pyrimidin-4-aminium chloride] the “Activity” value (A-10 cells; Table 2 data, 2′-OCH3 analog) was “inactive”.

With `COc1cccc(N(C)c2nc(C)nc3c2CC(C)C3)c1.Cl` (racemic) [(±)-5•HCl, N-(3-Methoxyphenyl)-N,2,6-trimethyl-6,7-dihydro-5H-cyclopenta[d]pyrimidin-4-aminium chloride] the IC50 (MDA-MB-435 cells [2]; [5]) was 0.153 ± 0.0111 µM and the “fold less potent than (±)-3•HCl” value (MDA-MB-435 cells [2]; comparison of 3′-OCH3 with 4′-OCH3 analog, Table 2) was “about 9 fold”.

In the case of `COc1ccc(N(C)c2nc(C)nc3[nH]ccc23)cc1` [Compound 1, N-(4-Methoxyphenyl)-N,2-dimethyl-7H-pyrrolo[2,3-d]pyrimidin-4-amine], the “Rr (relative resistance), effect of βIII-tubulin on drug sensitivity” value (“Rr (relative resistance), effect” for short) (WT βIII) is reported as 0.6–0.7, the “Cell cycle effect” value (MDA-MB-435 cells [3]) is reported as “mitotic accumulation” and the “Effect on interphase microtubules” value (A-10 cells; A-10 cells) is reported as “dramatic reorganization of the interphase microtubule network”. For the same compound, the “Effect on polymerization of purified tubulin” value [4] was “potent inhibitors of purified tubulin assembly”, the GI50 (60 cancer cell lines) was under 0.5 µM and the IC50 (Bovine brain tubulin) was 2.6 ± 0.05 µM.

For `COc1ccc(N(C)c2nc(C)nc3c2CC(C)C3)cc1.Cl` (racemic) [(±)-3•HCl, N-(4-Methoxyphenyl)-N,2,6-trimethyl-6,7-dihydro-5H-cyclopenta[d]pyrimidin-4-aminium chloride], the GI50 (HCT-15) was under 0.01 µM, the IC50 (HeLa) was 0.0373 ± 0.0041 µM and the “Rr (relative resistance), effect” value (WT βIII) was 0.6–0.7. The “Rr (relative resistance), effect” value (WT βIII; listed as (±)-3•HCI) was 0.6, the IC50 (WT βIII; read-out: IC50 (SD) WT βIII) was 0.0239 ± 0.0017 µM and the inhibition at 1 µM [1] was 60 ± 2%. It also gave an inhibition at 5 µM [1] of 84 ± 3%, an IC50 (SK-OV-3 MDR-1-6/6) of 0.0444 ± 0.0032 µM and a GI50 (HS 578T) of under 0.01 µM. The GI50 (NCI/ADR-RES) was under 0.01 µM, the GI50 (SF-295) was under 0.01 µM and the “Cell cycle effect” value (MDA-MB-435 cells [3]) was “mitotic accumulation”. For the same compound, the “Effect on interphase microtubules” value (A-10 cells; A-10 cells) was “dramatic reorganization of the interphase microtubule network”, the “Effect on polymerization of purified tubulin” value [4] was “potent inhibitors of purified tubulin assembly” and the GI50 (RXF 393) was under 0.01 µM. For the same compound, the GI50 (MCF7) was under 0.01 µM, the GI50 (60 cancer cell lines) was under 0.03 µM and the GI50 (K-562) was under 0.01 µM. For the same compound, the GI50 (HL-60(TB)) was under 0.01 µM, the IC50 (Bovine brain tubulin) was 1.9 ± 0.01 µM and the GI50 (SNB-75) was under 0.01 µM. It also gave a GI50 (NCI-H522) of under 0.01 µM, a GI50 (UACC-62) of under 0.01 µM and a GI50 (OVCAR-3) of under 0.01 µM. It also gave a GI50 (SW-620) of under 0.01 µM, a GI50 (KM12) of under 0.01 µM and a GI50 (A498) of under 0.01 µM. The GI50 (SR) was under 0.01 µM, the IC50 (SK-OV-3) was 0.0386 ± 0.0031 µM and the IC50 (MDA-MB-435 cells [2]; [5]) was 0.017 ± 0.0007 µM. It also gave a GI50 (MDA-MB-468) of under 0.01 µM, a GI50 (MDA-MB-435) of under 0.01 µM and a GI50 (SK-MEL-5) of under 0.01 µM. For the same compound, the GI50 (SK-MEL-28) was under 0.01 µM.

Source: paper PMC2988971 (Journal of medicinal chemistry, 2010)
